Assay results reported in US9000012B2 (priority 2009, dated 2015).

experiment: logP of the compounds of table 1; format: physicochemical

**Q.** For `C#CCC(C)OC(=O)Nc1cccc(CON=C(C(=O)N(C)CC)c2ccccc2)n1` (stereo not drawn) [compound 135], which logP is on record?
**A.** 3.31

**Q.** Which logP does the source give for `CCN(C)C(=O)C(=NOCc1csc(NC(=O)C2COc3ccccc3O2)n1)c1ccccc1` (stereo not drawn) [compound 149] here?
**A.** 3.39

**Q.** With `CCN(C)C(=O)C(=NOCc1cccc(NC(=O)Cc2ccc(OC)cc2)n1)c1ccccc1` [compound 137] as the compound, how does the logP read?
**A.** 3.23

**Q.** For `COC(=O)C(=NOCc1cccc(N)n1)c1ccccc1` [compound 25], which logP is on record?
**A.** 1.32

**Q.** With `C#CCCCCOC(=O)Nc1nc(CON=C(C(=O)N(C)CC)c2ccccc2)cs1` [compound 148] as the compound, how does the logP read?
**A.** 3.29

**Q.** Which logP does the source give for `CC(C)(C)OC(=O)Nc1cccc(CON=C(C#N)c2ccccc2)n1` [compound 1] here?
**A.** 4.64

**Q.** Which logP does the source give for `CCCCCOC(=O)Nc1cccc(CON=C(C(=O)NC)c2ccc(Oc3ccccc3)cc2)n1` [compound 65] here?
**A.** 2.64

**Q.** Which logP does the source give for `C#CCCOC(=O)Nc1nc(CON=C(C(=O)N(C)C)c2ccccc2)cs1` [compound 120] here?
**A.** 2.84

**Q.** For `CCN(C)C(=O)C(=NOCc1csc(NC(=O)c2ccc(Cl)cc2)n1)c1ccccc1` [compound 150], which logP is on record?
**A.** 3.69

**Q.** For `COc1ccc(CC(=O)Nc2nc(CON=C(C(=O)N(C)C)c3ccccc3)cs2)cc1` [compound 131], which logP is on record?
**A.** 2.88

**Q.** For `C#CCC(C)OC(=O)Nc1nc(CON=C(C(=O)N(C)C)c2ccccc2)cs1` (stereo not drawn) [compound 121], which logP is on record?
**A.** 2.84

**Q.** With `COc1ccc(OC(=O)Nc2cccc(CON=C(C(=O)N(C)C)c3ccccc3)n2)cc1` [compound 117] as the compound, how does the logP read?
**A.** 3.25

**Q.** With `CNC(=O)C(=NOCc1cccc(N)n1)c1ccc(OCc2ccccc2)cc1` [compound 61] as the compound, how does the logP read?
**A.** 1.17

**Q.** With `CNC(=O)C(=NOCc1cccc(NC(=O)C(F)(F)Oc2ccccc2)n1)c1ccccc1` [compound 76] as the compound, how does the logP read?
**A.** 3.35

**Q.** For `CN(C)C(=O)C(=NOCc1csc(NC(=O)c2ccc(Cl)cc2)n1)c1ccccc1` [compound 132], which logP is on record?
**A.** 3.41

**Q.** With `C#CCCCCOC(=O)Nc1nc(CON=C(C(=O)N(C)C)c2ccccc2)cs1` [compound 122] as the compound, how does the logP read?
**A.** 3.06

**Q.** With `CNC(=O)C(=NOCc1cccc(NCCCc2ccccc2)n1)c1ccccc1` [compound 79] as the compound, how does the logP read?
**A.** 1.94

**Q.** With `COc1ccc(C(=O)Nc2nc(CON=C(C(=O)N(C)C)c3ccccc3)cs2)cc1` [compound 134] as the compound, how does the logP read?
**A.** 2.84

**Q.** For `CNC(=O)C(=NOCc1cccc(N)n1)c1ccccc1` [compound 60], which logP is on record?
**A.** 0.65

**Q.** For `CNC(=O)C(=NOCc1cccc(NC(=O)Cc2ccc(OC)cc2)n1)c1ccccc1` [compound 77], which logP is on record?
**A.** 2.66

**Q.** With `COC(=O)C(=NOCc1cccc(NC(=O)OC(C)(C)C)n1)c1ccccc1` [compound 26] as the compound, how does the logP read?
**A.** 4.20

**Q.** For `COC(=O)C(=NOCc1cccc(NC(=O)Cc2ccc(OC)cc2)n1)c1ccccc1` [compound 39], which logP is on record?
**A.** 3.69

**Q.** For `CN(C)C(=O)C(=NOCc1cccc(N)n1)c1ccccc1` [compound 97], which logP is on record?
**A.** 1.10

**Q.** Which logP does the source give for `CCCCCCOC(=O)Nc1cccc(CON=C(C(=O)NC)c2ccccc2)n1` [compound 84] here?
**A.** 3.48

**Q.** Which logP does the source give for `C#CCCCCOC(=O)Nc1cccc(CON=C(C(=O)N(C)CC)c2ccccc2)n1` [compound 138] here?
**A.** 3.35

**Q.** For `CN(C)C(=O)C(=NOCc1cccc(NC(=O)OCCOc2ccccc2)n1)c1ccccc1` [compound 115], which logP is on record?
**A.** 3.48

**Q.** With `CNC(=O)C(=NOCc1cccc(NC(=O)c2cccc(F)c2)n1)c1ccccc1` [compound 78] as the compound, how does the logP read?
**A.** 2.84

**Q.** Which logP does the source give for `CCN(C)C(=O)C(=NOCc1cccc(NC(=O)C2COc3ccccc3O2)n1)c1ccccc1` (stereo not drawn) [compound 139] here?
**A.** 3.69

**Q.** Which logP does the source give for `CN(C)C(=O)C(=NOCc1cccc(NC(=O)c2cccc(F)c2)n1)c1ccccc1` [compound 113] here?
**A.** 3.23

**Q.** For `COC(=O)C(=NOCc1cccc(NC(=O)C2COc3ccccc3O2)n1)c1ccccc1` (stereo not drawn) [compound 37], which logP is on record?
**A.** 4.16

**Q.** Which logP does the source give for `CCN(C)C(=O)C(=NOCc1cccc(NC(=O)OC(C)(C)C)n1)c1ccccc1` [compound 142] here?
**A.** 3.72

**Q.** Which logP does the source give for `CCCCCCOC(=O)Nc1cccc(CON=C(C(=O)OC)c2ccccc2)n1` [compound 46] here?
**A.** 5.14

**Q.** For `COC(=O)C(=NOCc1cccc(NCCCc2ccccc2)n1)c1ccccc1` [compound 41], which logP is on record?
**A.** 2.60
